From patent publication US6624182B1, “Hydroxyphenylvinylthiazoles” (Ciba Specialty Chemicals Corporation, priority 1999, dated 2003)

Legend:
Experiment in all cases: Determination of the minimum inhibitory concentration (MIC value) in microtitre plates
[1] = system: S. aureus; assay type: cell-based; settings: optical density at 620 nm, 48 hours at 37° C., MIC = ≦20% growth; tested at 100; 10 and 1 ppm (approximate values); (2), (3), (4) at 120; 60; 30; 15; 7.5; 3.75 ppm
Description: (§1) Determination of the Minimum Inhibitory Concentration (MIC Value) in Microtitre Plates Nutrient Medium Casein/soybean flour/peptone bouillon for the preparation of preliminary cultures of the test bacteria and yeast. Mycological slant agar for the preliminary culture of moulds Examples of Test Microbes: Bacteria: Staphylococcus hominis DMS 20328 Procedure: The test substances are pre-dissolved in dimethyl sulfoxide (DMSO) and tested in a series of dilutions of 1:2. Bacteria and yeast are cultured overnight in CASO bouillon; the mould is cultured on myco-logical slant agar and sponged off with 10 ml of 0.85% sodium chloride solution (+0.1% Triton X-100). All the test microbes are adjusted to a germ count of 1−5×10^6 KBE/ml using 0.85% sodium chloride solution. The test substances are pre-pipetted into microtitre plates in an amount of 8 μl per well. Pre-diluted microbe suspensions are diluted 1:100 in CASO bouillon (bacteria and yeast) or Sabouraud 2% glucose bouillon (mould) and added to the test substances in an amount of 192 μl per well. The test batches are incubated for 48 hours at 37° C. (bacteria and yeast) or for 5 days at 28° C. (mould). After incubation, the growth is determined by means of the clouding of the test batches (optical density) at 620 nm in a microplate reader. The concentration of substance at which (compared with the growth control) a marked inhibition of growth (≦20% growth) of the test microbes can be observed is given as the minimum inhibitory concentration (MIC value). One microtitre plate is used per test microbe and substance concentration. All substances are tested in duplicate.

[2] = system: P. aeruginosa; assay type: cell-based, Pseudomonas aeruginosa CIP A-22; settings: optical density at 620 nm, 48 hours at 37° C., MIC = ≦20% growth; tested at 100; 10 and 1 ppm (approximate values); (2), (3), (4) at 120; 60; 30; 15; 7.5; 3.75 ppm
Description: as §1, with “Pseudomonas aeruginosa CIP A-22” for “Staphylococcus hominis DMS 20328”

[3] = system: A. niger; assay type: cell-based, Aspergillus niger ATCC 6275; settings: optical density at 620 nm, 5 days at 28° C., MIC = ≦20% growth; tested at 100; 10 and 1 ppm (approximate values); (2), (3), (4) at 120; 60; 30; 15; 7.5; 3.75 ppm
Description: as §1, with “Mould: Aspergillus niger ATCC 6275” for “Bacteria: Staphylococcus hominis DMS 20328”

[4] = system: C. albicans; assay type: cell-based, Candida albicans ATCC 10231; settings: optical density at 620 nm, 48 hours at 37° C., MIC = ≦20% growth; tested at 100; 10 and 1 ppm (approximate values); (2), (3), (4) at 120; 60; 30; 15; 7.5; 3.75 ppm
Description: as §1, with “Yeast: Candida albicans ATCC 10231” for “Bacteria: Staphylococcus hominis DMS 20328”

[5] = system: E. coli; assay type: cell-based, Escherichia coli NCTC 8196; settings: optical density at 620 nm, 48 hours at 37° C., MIC = ≦20% growth; tested at 100; 10 and 1 ppm (approximate values); (2), (3), (4) at 120; 60; 30; 15; 7.5; 3.75 ppm
Description: as §1, with “Escherichia coli NCTC 8196” for “Staphylococcus hominis DMS 20328”

COc1ccc(/C=C/c2nc(-c3ccc(N4CCCC4)cc3)cs2)cc1O [Compound of formula (29)]
>100 ppm: MIC values in ppm S. aureus [1] | MIC values in ppm P. aeruginosa [2] | MIC values in ppm A. niger [3] | MIC values in ppm C. albicans [4] | MIC values in ppm E. coli [5]

CCOc1cc(/C=C/c2nc(-c3ccc(N4CCCC4)cc3)cs2)ccc1O [Compound of formula (30)]
>100 ppm: MIC values in ppm S. aureus [1] | MIC values in ppm P. aeruginosa [2] | MIC values in ppm A. niger [3] | MIC values in ppm C. albicans [4] | MIC values in ppm E. coli [5]

COc1cc(/C=C/c2nc(-c3ccc(N4CCCC4)cc3)cs2)ccc1O [Compound of formula (31)]
>100 ppm: MIC values in ppm S. aureus [1] | MIC values in ppm P. aeruginosa [2] | MIC values in ppm A. niger [3] | MIC values in ppm C. albicans [4] | MIC values in ppm E. coli [5]

COc1ccc(/C=C/c2nc(-c3ccc(N4CCCC4)cc3)cs2)c(O)c1 [Compound of formula (32)]
>100 ppm: MIC values in ppm S. aureus [1] | MIC values in ppm P. aeruginosa [2] | MIC values in ppm A. niger [3] | MIC values in ppm C. albicans [4] | MIC values in ppm E. coli [5]

Oc1ccccc1/C=C/c1nc(-c2ccc(N3CCCC3)cc2)cs1 [Compound of formula (33)]
>100 ppm: MIC values in ppm S. aureus [1] | MIC values in ppm P. aeruginosa [2] | MIC values in ppm A. niger [3] | MIC values in ppm C. albicans [4] | MIC values in ppm E. coli [5]

COc1cc(/C=C/c2nc(-c3ccc(N4CCCC4)cc3)cs2)cc(O)c1OC [Compound of formula (34)]
>100 ppm: MIC values in ppm S. aureus [1] | MIC values in ppm P. aeruginosa [2] | MIC values in ppm A. niger [3] | MIC values in ppm C. albicans [4] | MIC values in ppm E. coli [5]

Cc1cc(/C=C/c2nc(-c3ccc(N4CCCC4)cc3)cs2)cc(C)c1O [Compound of formula (35)]
>100 ppm: MIC values in ppm S. aureus [1] | MIC values in ppm P. aeruginosa [2] | MIC values in ppm A. niger [3] | MIC values in ppm C. albicans [4] | MIC values in ppm E. coli [5]

Cc1cccc(/C=C/c2nc(-c3ccc(N4CCCC4)cc3)cs2)c1O [Compound of formula (36)]
>100 ppm: MIC values in ppm S. aureus [1] | MIC values in ppm P. aeruginosa [2] | MIC values in ppm A. niger [3] | MIC values in ppm C. albicans [4] | MIC values in ppm E. coli [5]

COc1cc(O)ccc1/C=C/c1nc(-c2ccc(N3CCCC3)cc2)cs1 [Compound of formula (38)]
>100 ppm: MIC values in ppm S. aureus [1] | MIC values in ppm P. aeruginosa [2] | MIC values in ppm A. niger [3] | MIC values in ppm C. albicans [4] | MIC values in ppm E. coli [5]

CCc1csc(/C=C/c2ccc(O)cc2)n1 [Compound of formula (39)]
>100 ppm: MIC values in ppm S. aureus [1] | MIC values in ppm P. aeruginosa [2] | MIC values in ppm A. niger [3] | MIC values in ppm C. albicans [4] | MIC values in ppm E. coli [5]

CCc1csc(/C=C/c2cccc(O)c2)n1 [Compound of formula (40)]
>100 ppm: MIC values in ppm S. aureus [1] | MIC values in ppm P. aeruginosa [2] | MIC values in ppm A. niger [3] | MIC values in ppm C. albicans [4] | MIC values in ppm E. coli [5]

CCc1csc(/C=C/c2ccc(OC)c(O)c2)n1 [Compound of formula (41)]
>100 ppm: MIC values in ppm S. aureus [1] | MIC values in ppm P. aeruginosa [2] | MIC values in ppm A. niger [3] | MIC values in ppm C. albicans [4] | MIC values in ppm E. coli [5]
